The source of these data is patent EP0968998A1, “Cosmetic compositions, ceramide analogues with anti-elastase activity and process for their preparation” (ELF ATOCHEM S.A., priority 1998, dated 2000).

For assay [1], the system named is stratum corneum. Description: Skin barrier improvement: transepidermal (insensible) water loss (PIE), Servomed evaporimeter, cream applied to inner forearm. In kind it is in vivo, volontaires sains ayant une peau sèche. Particulars: for Perte Insensible en Eau (PIE) M±s: cream with 0,5 % (ex. 7, témoins), 1 % (ex. 4, 8), 5 % (ex. 6). The source says: (§1) Les exemples qui suivent permettent d'illustrer l'invention. […] Les valeurs sont exprimées en nombre d'onde par centimètre. - Résonance magnétique nucléaire (RMN) Les spectres sont réalisés au moyen d'un appareil BRUCKER DRX 500, à 500 MHz (^1H) et 125 MHz (^13C) dans le DMSO-d6. La calibration de l'appareil est effectuée au moyen de DMSO. Les déplacements chimiques sont exprimés en ppm. […] On utilise le N-succinyl-(Ala)3-p-nitroanilide en solution dans le tétrahydrofurane et une solution d'élastase à 100 mg/ml dans un mélange de glycérol et de tampon acétate de sodium (50/50; v/v), pH5. L'activité de l'enzyme est mesurée à 37°C dans 100 mM de tampon Tris-HCI, pH8 contenant 0,01 % de Triton X-100 (volume/volume) et 0,02 % d'azide de sodium (poids/volume). Le céramide à tester, solubilisé dans le tétrahydrofurane (concentration en THF = 0,5 % en volume) est préincubé en présence de l'enzyme (0,05 mg/ml) dans le tampon pendant 5 minutes à 37°C. On ajoute le N-succinyl-(Ala)3-p-nitroanilide (concentration finale : 250 µM) et on mesure la libération de la p-nitroaniline dans une cuve en quartz par spectrophotométrie à 410 nm. La capacité inhibitrice du céramide est exprimée en pourcentage d'inhibition (% I) selon la relation : %I = (1 -(Vi)/(Vo))×100 [formula] dans laquelle Vi et Vo sont les vitesses d'apparition de la p-nitroaniline en présence et en absence d'inhibiteur respectivement. - Mesure de l'amélioration de la barrière cutanée a) mesure de la Perte Insensible en Eau (PIE) La mesure de la PIE permet de quantifier la très faible quantité d'eau qui diffuse passivement à travers le stratum corneum. Ce paramètre représente un très bon index de la fonction barrière du stratum corneum. Cette méthode est surtout utilisée pour contrôler l'efficacité de formules cosmétiques qui, contenant certains types de lipides sont capables de diminuer la PIE et, en conséquence, d'empêcher la déshydratation du stratum corneum. La sonde est laissée en contact de la peau pendant 2 minutes environ de façon à atteindre une position d'équilibre. PIE = D'(dP)/(dx)(gradient de pression de vapeur) [formula] Les valeurs sont exprimées en g/m^2/heure et permettent de calculer un delta de PIE = PIE (peau traitée) - PIE (peau témoin). L'appareil utilisé est un Evaporimètre EPI de Servomed. Les mesures sont effectuées sur deux groupes de 15 volontaires sains ayant une peau sèche, avant l'application du produit (t=0) et après l'application (t=0,5 heure, 1 heure, 3 heures et 6 heures) sur la face interne des deux avant-bras. L'analogue de céramide selon l'invention ou le céramide témoin est incorporé dans une crème ayant la composition suivante (en % en poids) :
(§2) La teneur en analogue de céramide dans la crème est égale à 0,5 % (exemple 7), 1 % (exemples 4 et 8) et 5 % (exemple 6), et celle des céramides témoins (a) et (b) est égale à 0,5 %. La diminution des valeurs de PIE signifie une amélioration de la qualité de la barrière cutanée qui traduit un meilleur pouvoir retentionnel de l'eau au niveau de la couche cornée et donc une meilleure hydratation. b) hydratation cutanée L'eau peut être considérée comme un dipôle électrique capable de conduire l'électricité. Le transport d'électricité dans un champ donné est proportionnel à la quantité d'eau présente dans le stratum corneum. Plus une peau est riche en eau et plus le courant électrique passe rapidement entre 2 électrodes. Il existe donc un lien entre l'hydratation du stratum corneum et les modifications des propriétés électriques. Les mesures de capacitance, liée à la constante diélectrique de la peau, sont réalisées par le Cornéomètre Courage+Khazaka CM 200, dont la sonde présente une surface de contact avec la peau de 49 mm^2; cette sonde est appliquée avec une pression constante sur la surface cutanée à mesurer, et l'indice d'hydratation directement proportionnel au taux hydrique de surface est instantané.

The test system of assay [2] is stratum corneum. Description: Skin hydration: capacitance measurement (Corneometer Courage+Khazaka CM 200), hydration index, cream applied to forearm. It is filed as in vivo, volontaires sains ayant une peau sèche. Particulars: for Indice d'Hydratation (IH) M±s: cream with 0,5 % (ex. 7, témoins), 1 % (ex. 4, 8), 5 % (ex. 6).
Description: as §1, §2

Setting [3] is: t=0 heure (before application, baseline).

For `CCCCCCCC/C=C\CCCCCCCC(=O)NC(CC)(CO)COC(=O)CCCCCCC/C=C\CCCCCCCC` (stereo not shown) [Exemple 6, 1-oléoyl-2-éthyl-2-oléoylamino-1,3-propanediol], the “Perte Insensible en Eau (PIE) M±s” value is on record as 3,67±1,34 g/m^2/heure in the assay on stratum corneum [1] (t=0,5 heure after application); 3,96±1,60 g/m^2/heure in the assay on stratum corneum [1] (setting [3]); 3,48±1,19 g/m^2/heure in the assay with stratum corneum [1] (t=1 heure after application); 3,39±1,20 g/m^2/heure in the assay with stratum corneum [1] (t=3 heures after application); 3,97±1,20 g/m^2/heure in the assay with stratum corneum [1] (t=6 heures after application). Moreover, in the assay with stratum corneum [1] (t=6 heures versus t=0), the “Perte Insensible en Eau (PIE) % évol.” value is on record as 0%. Also, the “Indice d'Hydratation (IH) M±s” value in the assay on stratum corneum [2] (t=0,5 heure after application) is recorded as 78,53±6,23; in the assay with stratum corneum [2] (setting [3]), 61,91±6,90; with stratum corneum [2] (t=1 heure after application), 75,29±7,78; in the assay on stratum corneum [2] (t=3 heures after application), 67,05±5,61; in the assay on stratum corneum [2] (t=6 heures after application) it was 64,56±6,14.
For `CCCCCCCCCCCCCCCCCC(=O)NC(C)(CO)COC(=O)CCCCCCCCCCCCCCCCC` (stereo not shown) [Exemple 7, 1-stéaroyl-2-méthyl-2-stéaroylamino-1,3-propanediol], the “Perte Insensible en Eau (PIE) M±s” value in the assay with stratum corneum [1] (t=0,5 heure after application) was 4,07±1,72 g/m^2/heure; with stratum corneum [1] (setting [3]) it was 4,50±2,0 g/m^2/heure; in the assay on stratum corneum [1] (t=1 heure after application), 3,78±1,67 g/m^2/heure; in the assay with stratum corneum [1] (t=3 heures after application), 3,70±1,50 g/m^2/heure; in the assay on stratum corneum [1] (t=6 heures after application), 4,46±1,64 g/m^2/heure. The “Indice d'Hydratation (IH) M±s” value with stratum corneum [2] (t=0,5 heure after application) is given as 66,13±5,48; with stratum corneum [2] (setting [3]), 60,13±6,27; in the assay on stratum corneum [2] (t=1 heure after application), 65,56±6,24; with stratum corneum [2] (t=3 heures after application), 63,82±7,05; in the assay on stratum corneum [2] (t=6 heures after application) it was 61,55±6,32.
Turning to `CCCCCCCCCCCCCCCCCC(=O)NC(CO)(CO)COC(=O)CCCCCCCCCCCCCCCCC` [Exemple 8, 1-stéaroyl-2-hydroxyméthyl-2-stéaroylamino-1,3-propanediol], the “Perte Insensible en Eau (PIE) M±s” value with stratum corneum [1] (t=0,5 heure after application) was 4,28±1,38 g/m^2/heure; in the assay with stratum corneum [1] (setting [3]), 4,52±1,02 g/m^2/heure; with stratum corneum [1] (t=1 heure after application), 3,12±1,11 g/m^2/heure; with stratum corneum [1] (t=3 heures after application) it was 4,62±1,14 g/m^2/heure; in the assay on stratum corneum [1] (t=6 heures after application), 4,55±1,39 g/m^2/heure. The “Indice d'Hydratation (IH) M±s” value in the assay on stratum corneum [2] (t=0,5 heure after application) is recorded as 67,16±7,98; in the assay with stratum corneum [2] (setting [3]), 64,13±8,01; in the assay on stratum corneum [2] (t=1 heure after application), 67,04±7,74; in the assay on stratum corneum [2] (t=3 heures after application), 64,13±8,37; with stratum corneum [2] (t=6 heures after application), 64,87±7,83. In addition, the “Indice d'Hydratation (IH) % évol.” value in the assay with stratum corneum [2] (t=3 heures versus t=0) was 0%.
As for `CCCCCCCCCCCCCCCCCC(=O)N[C@@H](CO)[C@H](O)[C@H](O)CCCCCCCCCCCCCC` [Témoin (b), N-stéaroyl phytosphingosine, reference compound], the “Perte Insensible en Eau (PIE) M±s” value in the assay with stratum corneum [1] (t=0,5 heure after application) is recorded as 4,09±1,86 g/m^2/heure; with stratum corneum [1] (setting [3]), 4,22±2,17 g/m^2/heure; in the assay on stratum corneum [1] (t=1 heure after application), 3,80±1,75 g/m^2/heure; in the assay on stratum corneum [1] (t=3 heures after application), 3,53±1,57 g/m^2/heure; with stratum corneum [1] (t=6 heures after application), 4,36±1,82 g/m^2/heure. The “Indice d'Hydratation (IH) M±s” value is 67,55±7,89 in the assay on stratum corneum [2] (t=0,5 heure after application); 61,00±7,21 with stratum corneum [2] (setting [3]); 67,45±7,33 with stratum corneum [2] (t=1 heure after application); 63,20±5,36 in the assay on stratum corneum [2] (t=3 heures after application); 61,36±3,79 with stratum corneum [2] (t=6 heures after application).
For “N-stéaroyl-D,L-sphingosine [Témoin (a), reference compound]”, the “Perte Insensible en Eau (PIE) M±s” value is given as 3,91±1,40 g/m^2/heure in the assay on stratum corneum [1] (t=0,5 heure after application); 4,40±0,90 g/m^2/heure in the assay with stratum corneum [1] (setting [3]); 3,37±1,00 g/m^2/heure in the assay on stratum corneum [1] (t=1 heure after application); 4,20±1,09 g/m^2/heure with stratum corneum [1] (t=3 heures after application); 4,11±1,41 g/m^2/heure with stratum corneum [1] (t=6 heures after application). The “Indice d'Hydratation (IH) M±s” value is 67,11±7,74 with stratum corneum [2] (t=0,5 heure after application); 63,95±8,45 in the assay with stratum corneum [2] (setting [3]); 67,93±9,08 in the assay with stratum corneum [2] (t=1 heure after application); 62,67±6,59 with stratum corneum [2] (t=3 heures after application); 63,47±6,46 in the assay with stratum corneum [2] (t=6 heures after application).
